In US20120245123A1, “METHODS FOR IMPROVING BONE HEALTH IN INFANTS USING PREBIOTICS” (ABBOTT LABORATORIES, priority 2011, published 2012):

Experiments:
[1] = tested on: femur, tibia and lumbar vertebra of rat offspring; assay: Micro-CT of trabecular and cortical bone architecture in rat offspring after maternal diet supplementation; format: in vivo, Sprague-Dawley rats
Procedure: Fifty 10-week-old pregnant Sprague-Dawley rats at the eleventh day of gestation (Charles Rivers Laboratories, Orleans Cedex, France) are housed under standardized environmental conditions (22° C., relative humidity of 50%, artificial lighting on for 12 hours/day) and are given free access to deionized water during the test period. The rats are randomly divided into five groups of feeding (n=10/group): (1) Control Group (“Control”), who receives a standard purified rodent diet (SPRD); […] (3) Prebiotic group (“Prebiotic”), who receives the SPRD containing 7.5% of the total carbohydrate as inulin-type fructans (Synergy-1®, Orafti, Belgium); […] During their suckling period, the pups receive only the dam's milk. […] Sacrifices of rat pups are carried out at birth, weaning and at the end of the adolescence period. The whole bone mineral density (BMD) and bone mineral content (BMC) of the skeleton are measured at birth and at weaning by using a pDEXA densitometer (Norland Corp., Fort Atkinson, Wis., USA). In adolescent offspring, the determination of BMC and BMD are analyzed in isolated bones (femur, tibia and vertebrae). Determination of the trabecular architecture parameters (trabecular thickness, separation and number), bone length and bone volume fraction (BV/TV) is analyzed by Micro-computed tomography (micro-CT). Micro-CT analysis is carried out by the Bone & Joint Research Group (University of Southampton, UK) and cortical parameters are performed by SCANCO Medical AG (Bruttisellen, Switzerland). Micro-computed tomography (micro-CT) is a technique for the nondestructive assessment and analysis of the three-dimensional trabecular and cortical bone structural properties. Scanning with micro-CT can be achieved at resolutions as low as 5 μm, allowing for the determination of porosities and subtle modeling and remodeling events of the bone tissue. Furthermore, true three-dimensional image reconstructions permit the assessment of bone microarchitecture as a three dimensional structure, providing critical information to images collected through histomorphometry. In the present Example, femoral, tibia and vertebra cancellous bones are assessed using Metris (XTek) Benchtop 160Xi CT scanner (University of Southampton) and vertebra cortical bone is assessed using MicroCT-40 computed tomography system (Scanco Medical, Basserdorf, Switzerland). […] Micro-CT analysis also allows for the determination of various quality properties of the cortical bone. The bone fragility is influenced not only by the architecture but also by the tissue “quality”. The strength of a bone as an organ depends on the material properties of bone as a tissue. Stiffness, or the resistance of the whole bone to deformation by a load, is a key material property and requires a destructive mechanical technique if measurements are done in vivo. The non-destructive analysis of the volumetric bone mineral density of cortical bone (cortical vBMD) by micro CT has an approximately linear relationship with the stiffness of the cortical bone. Cortical thickness (C.Th) is one of the variables that helps to evaluate the modeling-derived changes provoked by growth. The cortical porosity (C.Sp) reflects the intracortical remodeling in the bone. Remodeling, that occurs in the surfaces of bone, could be enhanced if the pore size becomes larger and, therefore, with the increase of the cortical porosity. An increment on cortical porosity weakens the bone and decreases the bone strength. Results are expressed as mean±SEM, and the probability level at which the differences are considered significant is set at p<0.05. One-way ANOVA is used to evaluate differences attributable to the diet in the different markers, previously testing the homogeneity of variances by Levene's. A posteriori post hoc tests are carried out by the Dunnet test.

[2] = tested on: skeleton of rat offspring (whole body, femur, tibia, lumbar vertebra); assay: pDEXA densitometry of BMD and BMC in rat offspring after maternal diet supplementation; format: in vivo, Sprague-Dawley rats; conditions: for lumbar vertebra BMC with respect to Control group / lumbar vertebra BMD with respect to Control group: adolescent offspring (90-day-old)
Procedure: Fifty 10-week-old pregnant Sprague-Dawley rats at the eleventh day of gestation (Charles Rivers Laboratories, Orleans Cedex, France) are housed under standardized environmental conditions (22° C., relative humidity of 50%, artificial lighting on for 12 hours/day) and are given free access to deionized water during the test period. The rats are randomly divided into five groups of feeding (n=10/group): (1) Control Group (“Control”), who receives a standard purified rodent diet (SPRD); […] (3) Prebiotic group (“Prebiotic”), who receives the SPRD containing 7.5% of the total carbohydrate as inulin-type fructans (Synergy-1®, Orafti, Belgium); […] During their suckling period, the pups receive only the dam's milk. […] Sacrifices of rat pups are carried out at birth, weaning and at the end of the adolescence period. The whole bone mineral density (BMD) and bone mineral content (BMC) of the skeleton are measured at birth and at weaning by using a pDEXA densitometer (Norland Corp., Fort Atkinson, Wis., USA). In adolescent offspring, the determination of BMC and BMD are analyzed in isolated bones (femur, tibia and vertebrae). Determination of the trabecular architecture parameters (trabecular thickness, separation and number), bone length and bone volume fraction (BV/TV) is analyzed by Micro-computed tomography (micro-CT). Micro-CT analysis is carried out by the Bone & Joint Research Group (University of Southampton, UK) and cortical parameters are performed by SCANCO Medical AG (Bruttisellen, Switzerland). DEXA scan is a technique used in the clinical practice for the analysis of bone health. Two main bone properties can be measured by this technique: Bone Mineral Content (BMC) and areal Bone Mineral Density (BMD). BMC determines the mass of mineral present in the whole body or in the selected skeletal region. BMC changes reflect the result of the metabolic “mass” balance between bone formation and bone destruction. BMC represented relative to the projected bone area refers to BMD. BMD represents the […] present in the bone region studied. […] The manufacturer's software for research in small animals calculates BMC and BMD for the isolated bone. Femur is measured from the femoral neck to the knee joint. Tibia is measured from the knee joint to the joint between tibia and calcaneus, also including fibula. […] Results are expressed as mean±SEM, and the probability level at which the differences are considered significant is set at p<0.05. One-way ANOVA is used to evaluate differences attributable to the diet in the different markers, previously testing the homogeneity of variances by Levene's. A posteriori post hoc tests are carried out by the Dunnet test.

[3] = adolescent offspring (90-day-old)

| Compound | vertebra BV/TV enhanced in comparison with Control group [1, 3] [%] | vertebra cortical porosity, effect [1, 3] | vertebra cortical vBMD, effect [1, 3] | vertebra trabecular separation respective to Control group [1, 3] | vertebra trabecular thickness enhanced in comparison with Control group [1, 3] [%] | vertebrae cortical thickness, effect [1, 3] | trabecular number of femur and tibia respective to Control group ([1]; pups at delivery) | trabecular separation of femur and tibia respective to Control group ([1]; pups at delivery) | trabecular thickness of femur and tibia respective to Control group ([1]; pups at delivery) | increase in vertebra trabecular thickness respective to Control group ([1]; pups at weaning) [%] | vertebra BV/TV ratio respective to Control group ([1]; pups at weaning) | vertebra trabecular separation respective to Control group ([1]; pups at weaning) | lumbar vertebra BMC with respect to Control group [2] | lumbar vertebra BMD with respect to Control group [2] | cortical features of the vertebra [1, 3] | vertebra BV/TV, effect versus Control group [1, 3] | vertebra trabecular thickness, effect versus Control group [1, 3] | whole body BMC relative to Control group ([2]; pups at weaning) |
| --- | --- | --- | --- | --- | --- | --- | --- | --- | --- | --- | --- | --- | --- | --- | --- | --- | --- | --- |
| O=C([O-])[O-].[Ca+2] [Calcium, calcium carbonate] | 22 | decrease | increase | significant decrease | 17 | without significantly affecting | greater | decrease in the trabecular separation, although statistical differences are not achieved | lower | ~30 | statistically different | statistically different | no differences | no differences |  |  |  |  |
| Vitamin D |  |  |  |  |  |  |  |  |  |  |  |  | no differences | no differences | does not show any improvement | No effect | No effect | lower |
